One compound from US20250288558A1, “THERAPEUTIC FOR SPINAL CORD INJURY TO INDUCE HYPOTHERMIA” (The Trustees of Indiana University, priority 2024, published 2025) can be followed below.

Values joined by “and” are separate entries in the source; they are usually repeats but may differ in a detail not shown here. Identical values can stand only once. Counter-ions that a name gives are not always drawn. Like-named read-outs stand apart in the source and are kept apart here.

Data set [1] relates to spinal cord coronal sections of SCI mice. The note with it: female, n=3. The procedure:
We first measured the lesion size and spared white matter using cresyl violet and cosin staining.
Tissue Processing: All the animals were deeply anesthetized with Avertin and then perfused transcardially with cold saline, followed by a fixative containing 4% paraformaldehyde (PFA) in PBS. The spinal cord was removed, post-fixed overnight in PFA, and cryoprotected for 48 hours in 30% sucrose. Serial 30 μm thick coronal sections were cut using a cryostat (Leica CM 1950), mounted on slides and stored at −20° C. The sections were then processed for histopathological analysis.
Cresyl violet and cosin staining: A set of slides were first removed from the freezer and allowed to air dry for a minimum of 60 minutes at room temperature. Subsequently, the sections were treated with two 5-minute rinses in 10 mM PBS, followed by a 1-minute rinse in ddH2O. Next, slides were immersed for 20 minutes in Nissl stain, followed by two 5-minute rinses in ddH2O. Subsequently, slides were sequentially immersed in 90% ethanol (3 minutes), 95% ethanol (3 minutes), two changes of 100% ethanol (3 minutes each), and finally, three changes of 100% xylene (3 minutes each). Lastly, slides were mounted using Permount.

For data set [2], the system named is c-fos positive neurons in raphe nuclei. The note with it: during urodynamic recording.
Description: During the urodynamic recording, brain stem neurons controlling the urination within the spared supraspinal circuitry were activated and expressed c-fos.
The test system of data set [3] is none-injury young adult c57 BL/6 mice. The procedure:
The effects of different doses of Dex on hypothermia induction in none-injury young adult c57 BL/6 mice was tested. […] Further, we examined the change of Dex induced hypothermia when the routine Avertin (2.5%), a wildly used anesthetic for small animal surgery was applied.

Data set [4] deals with mice with contusive T9 moderate SCI (IH). The note with it: Dex 100 μg/kg one hour post-trauma, IH model, ambient 24.5° C. The procedure:
Contusive spinal cord injury: Adult female C57BL/6 mice (8 weeks old, 18-22 g) were purchased from The Jackson Laboratory (Bar Harbor, ME). Depending on different injury model, mice were either randomly divided into three groups: sham, SCI+heating pad, and SCI+Dex for LISA injury model, or were randomly divided into four groups: sham, SCI+heating pad, SCI+Dex, and SCI+Conventional hypothermia for Infinite Horizons (IH) model. […] All animal care, handling, and surgery were performed in accordance with the Guide for the Care and Use of Laboratory Animals (National Research Council) and the Guidelines of the Institutional Animal Care and Use Committee of Indiana University School of Medicine. Spinal cord contusion was made at the thoracic (T9) vertebral level. After avertin anesthesia, animals will be placed on a thermometer-controlled heating pad for the duration of recovery (except Dex and conventional hypothermia treated group). For LISA injury model, C57/6J mice were anesthetized. […] The T9 contusion injury was performed using a LISA impactor, where the injury level was determined using a laser sensor. After injury confirmation, the surgical area is sutured, the animal is hydrated and monitored for post-operative care, including analgesia and bladder expression. […]

Data set [5] shares this test system. As to conditions: IH model. From the text: Rotarod test: Rotorod is used to assay the hindlimb function of the animal. The animal was put on a rotated device. It consisted of a metal frame with a motorized, rotating assembly of rods. Animals were allowed to remain stationary. […] If animal skilled, it can remain on the device at this speed for extra 30 sec until the 2-min test period elapsed. Normally, a trial was ended if the animal fell completely off the rod or gripped the rod and spun around without attempting to walk on the rod. Mean duration on the rod was recorded.

The subject of data set [6] is mice with moderate T9 contusive SCI. From the text:
Therefore, we compared the functional outcomes of Dex treated SCI mice with SCI only mice using multiple behavior tests post-trauma. C57 BL/6 wild type mice (female) at age of 8 weeks were randomly assigned into three different groups, including sham, SCI, and SCI+Dex. Then the moderate T9 contusive SCI was introduced in two injury groups using LISA injury model. Mice in sham and SCI only group were put on the heating pad to maintain their normal body temperature, while mice in Dex treated group were exposed in ambient room temperature of 24.5° C. for hypothermia during whole surgery and recovery process. One hour after injury, one dose of Dex (100 μg/kg) was IP administrated to rapidly induce early moderate to modest therapeutic hypothermia (30-32° C.). All mice body temperature were measured by rectal probe every 30 minutes to monitor the hypothermia after surgery till the mice fully waked up and back to normothermia. After SCI injury, at different time, multiple behavioral tests, were applied to examine functional outcomes and the potential neuroprotective effects of Dex treatment (FIG. 3A). The Basso Mouse Scale (BMS) was a reliable measurement that developed to examine the locomotion in spinal cord injured mice. It has been widely used in mouse functional evaluation and serves as an indicator of recovery. This test examines different locomotor categories such as paralysis, weight support, stepping, trunk stability, and so on. The scores ranged from 9 to 0 that represent normal movement to complete paralysis, respectively. Three days prior surgery, the BMS scores of all mice in different groups were measured. Only mice with 9 score were kept. The mice with score lower than 9 were replaced to make sure mice in different groups had same baseline of locomotion. After surgery, the BMS score was repeatedly measured at 3 days, 1 week, 2 weeks, 3 weeks, 4 weeks, 5 weeks, and 6 weeks (FIG. 3B).
Contusive spinal cord injury: Adult female C57BL/6 mice (8 weeks old, 18-22 g) were purchased from The Jackson Laboratory (Bar Harbor, ME). Depending on different injury model, mice were either randomly divided into three groups: sham, SCI+heating pad, and SCI+Dex for LISA injury model, or were randomly divided into four groups: sham, SCI+heating pad, SCI+Dex, and SCI+Conventional hypothermia for Infinite Horizons (IH) model. […] All animal care, handling, and surgery were performed in accordance with the Guide for the Care and Use of Laboratory Animals (National Research Council) and the Guidelines of the Institutional Animal Care and Use Committee of Indiana University School of Medicine. Spinal cord contusion was made at the thoracic (T9) vertebral level. After avertin anesthesia, animals will be placed on a thermometer-controlled heating pad for the duration of recovery (except Dex and conventional hypothermia treated group). For LISA injury model, C57/6J mice were anesthetized. A midline skin incision was made to expose the thoracolumbar spine, followed by the removal of the T9 spinous process and lamina to expose the dura mater. The displacement was set to be 0.5 mm. The T9 contusion injury was performed using a LISA impactor, where the injury level was determined using a laser sensor. After injury confirmation, the surgical area is sutured, the animal is hydrated and monitored for post-operative care, including analgesia and bladder expression. For IH model, a 1-inch skin incision was placed on the dorsal midline, musculature was retracted, and then the spinal column was visualized and placed into a stabilizer with two clamps retracting the spinous processes of the vertebrae directly surrounding the injury site. A laminectomy was performed to expose the dura.

For data set [7], the system named is mice with contusive T9 moderate SCI (IH). The note with it: end of BMS test, IH model. An excerpt:
The scores ranged from 9 to 0 that represent normal movement to complete paralysis, respectively.

With `Cc1cccc([C@H](C)c2cnc[nH]2)c1C` [Dex, dexmedetomidine hydrochloride], in data set [1], the “total area of spinal cord section, SCI+Dex vs. SCI” value is listed as “no significant difference”. Further, in data set [2], the “c-fos positive neurons in raphe nuclei vs. SCI group” value was “Significantly more c-fos positive neurons”. Moreover, the hypothermia induction result in data set [3] (Dex 1 μg/kg IP, none-injury mice) is on record as “failed to induce hypothermia”; in data set [3] (Dex 10 μg/kg IP, none-injury mice), “failed to induce hypothermia”. In addition, the duration of hypothermia entry in data set [3] (Dex 50 μg/kg IP, ambient temperature 24.5° C.) is “less than one hour”; in data set [3] (Dex 50 μg/kg one hour post Avertin (2.5%), none-injury mice), 2 h; in data set [3] (Dex 100 μg/kg IP alone, ambient temperature 24.5° C., hydrochloride), 2 h and 3 h; in data set [3] (Dex 100 μg/kg one hour post Avertin (2.5%), none-injury mice) it was 6 h. The hypothermia body temperature in data set [3] (Dex 50 μg/kg IP, ambient temperature 24.5° C., mild hypothermia) is 34-35 °C; in data set [3] (Dex 100 μg/kg IP, mild to moderate hypothermia) it was 30-32 °C; in data set [3] (Dex 200 μg/kg IP, more severe hypothermia), “lower than 28 °C”. In addition, in data set [3] (Dex 200 μg/kg IP, due to urethral obstructions), the “death of treated mice” value was “about 40%”. The “induced hypothermia body temperature” value in data set [3] (in one hour at ambient temperatures 24-25° C., modest hypothermia) is 30-32 °C. Moreover, in data set [4], the “duration of moderate hypothermia” value was 16 h. In data set [5] (6 wk, SCI+Dex, n=10), this compound displayed a Rotarod duration time of 35.3±1.84. In addition, the “Rotarod average increase rate vs. none-treatment SCI mice” value in data set [5] worked out at 55%. In addition, the “locomotion recovery (BMS) compared to none-treatment SCI group” value in data set [6] (FIG. 3B, female, n=10) is on record as “better locomotion recovery”. In addition, in data set [6] (compared with about 25% for hypothermia alone (meta-analysis)), the “improvement of locomotor function in BMS test” value turned out to be 70%. Moreover, the “BMS score compared to SCI only group” value in data set [6] (day 3 post-injury, Dex 100 μg/kg IP one hour after injury) is “did not show the significant difference”. In data set [6] (one week after surgery, Dex 100 μg/kg IP), the “average BMS score” value is listed as approximately 5. Further, the “increase of BMS score compared to SCI only group” value in data set [6] (week 6 (end of test)) is reported as “over 65%”. The BMS score entry in data set [6] (week 6 (end of test), Dex 100 μg/kg IP) is “about 7.8”; in data set [7] (SCI+Dex, n=10), 7.13±0.48. Further, the “BMS increase rate vs. SCI” value in data set [7] is on record as 56%.
